Test results as given in PubChem BioAssay (NCI).
Where “and” joins values, the source holds several entries; their conditions need not be identical. Equal entries are not always repeated.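 Five concentrations, 48 hours, 96-well plates. Abbreviation: GI50, concentration required for 50% inhibition of growth. TGI is the concentration that stops growth completely.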

What was measured:
Assay in all cases: inhibition of tumour cell growth, NCI panel, 48 h
A498 renal = tested on: A498 renal
A549 NSCLC = tested on: A549 NSCLC
HCT-116 colon = tested on: HCT-116 colon
KM12 colon = tested on: KM12 colon
MALME-3M melanoma = tested on: MALME-3M melanoma
NCI-H522 lung = tested on: NCI-H522 lung
OVCAR-3 ovarian = tested on: OVCAR-3 ovarian
TK-10 renal = tested on: TK-10 renal
U251 CNS = tested on: U251 CNS
HCC-2998 colon = tested on: HCC-2998 colon

Structure (SMILES) | TGI (A498 renal) | TGI (A549 NSCLC) [µM] | TGI (HCT-116 colon) | TGI (KM12 colon) [µM] | TGI (MALME-3M melanoma) [µM] | TGI (NCI-H522 lung) | TGI (OVCAR-3 ovarian) | TGI (TK-10 renal) | TGI (U251 CNS) [µM] | TGI (HCC-2998 colon) [µM] | GI50 (A549 NSCLC) | GI50 (HCC-2998 colon) | GI50 (KM12 colon) [µM] | GI50 (MALME-3M melanoma) [µM] | GI50 (NCI-H522 lung) | GI50 (OVCAR-3 ovarian) [µM] | GI50 (TK-10 renal) | GI50 (U251 CNS) [µM] | GI50 (A498 renal) [µM] | GI50 (HCT-116 colon)
N#Cc1cccc(/C=N/N=C(\N)NO)c1 | > 100 µM | > 100 | > 100 µM | > 100 | > 100 | > 100 µM | > 100 µM | > 100 µM | > 100 | – | – | – | – | – | – | – | – | – | – | –
COc1ccc(C2ON(c3cccc(C)n3)CC=C2C)cc1 (stereo unspecified) | – | > 100 | – | > 100 | > 100 | 54.8 µM | > 100 µM | – | > 100 | > 100 | – | – | – | – | – | – | – | – | – | –
CC(=O)OCC1OC(n2c(-c3ccc(C)cc3)cc(-c3ccccc3)c(C#N)c2=O)C(OC(C)=O)C(OC(C)=O)C1OC(C)=O (stereo unspecified) | – | > 100 | > 100 µM | > 100 | > 100 | > 100 µM | > 100 µM | > 100 µM | > 100 | > 100 | – | – | – | – | – | – | – | – | – | –
CN(C)CCNC(=O)c1ccc(NC(=O)c2nc([N+](=O)[O-])cn2C)cc1 | > 100 µM | > 100 | > 100 µM | > 100 | > 100 | > 100 µM | > 100 µM | > 100 µM | > 100 | – | – | – | – | – | – | – | – | – | – | –
CC(C)=CC1=C2C3=C(C(=O)C4(O)Oc5c(C)c6c7c(c5OC24C)[C@@H](C)CC[C@@H]7[C@@H](C)C[C@H]6C=C(C)C)C(C)CCC3C(C)C1 (stereo partly specified) | – | > 100 | – | > 100 | > 100 | > 100 µM | > 100 µM | > 100 µM | > 100 | > 100 | > 100 µM | > 100 µM | > 100 | > 100 | > 100 µM | > 100 | > 100 µM | > 100 | – | –
Cc1ccc(Cl)cc1NC(=O)c1sc2nc3c(cc2c1N)C(=O)CCC3 | > 100 µM | > 100 | > 100 µM | > 100 | – | 4.95 µM | – | > 100 µM | > 100 | > 100 | 3.85 µM | > 100 µM | 3.65 | – | 2.17 µM | – | 8.99 µM | 4.45 | 1.86 | 5.97 µM
CCCSS[C@H]1NC(=O)[C@H]1NC(=O)COc1ccccc1 | 70.3 µM | 67.3 | 22 µM | 31.6 | 26.9 | – | 31.5 µM | 63.9 µM | 31.8 | 29.9 | – | – | – | – | – | – | – | – | – | –
CCN1CCN(CC(=O)N2c3cccc4cccc(c34)N(C(=O)CN3CCN(CC)CC3)C2c2cn(-c3ccccc3)nc2-c2cccc([N+](=O)[O-])c2)CC1 | 2.11 µM | – | 2.83 µM | 3.28 | 3.13 | – | 3.24 µM | 3.69 µM | 3.21 | 3.43 | – | 1.83 µM | 1.72 | 1.63 | – | 1.63 | 1.88 µM | 1.53 | 0.49 | 1.27 µM
CCOC(=O)c1c2c(n3ccccc13)C(=O)c1ncccc1C2=O | – | 8.01 | 2.33 µM | 75.9 | 4.56 | 3.72 µM | 0.945 µM | 20.2 µM | 1.96 | 14.3 | 0.323 µM | 0.877 µM | 0.27 | 0.0561 | 0.419 µM | 0.03 | 0.354 µM | 0.0329 | – | 0.0424 µM
CN1C(=O)C2C(C1=O)C1(O)c3ccccc3C2(N)c2ccccc21 (stereo unspecified) | > 100 µM | > 100 | > 100 µM | > 100 | > 100 | – | > 100 µM | > 100 µM | > 100 | > 100 | – | – | – | – | – | – | – | – | – | –
NC(N)=NS(=O)(=O)c1ccc(NCCc2c3ccccc3nc3ccccc23)cc1 | – | > 100 | > 100 µM | > 100 | > 100 | > 100 µM | > 100 µM | > 100 µM | > 100 | > 100 | – | – | – | – | – | – | – | – | – | –
OCC#Cc1ccccc1C#CCCCCCC#Cc1ccccc1C#CCO | 44.8 µM | 45.3 | 25.2 µM | 49.4 | 52.6 | 29.6 µM | 32.9 µM | 76.8 µM | 36 | – | 19.2 µM | – | 18.8 | 20.7 | 14.6 µM | 16 | 27.1 µM | 20.9 | 24.1 | 12.7 µM
CN(Cc1cc(C(C)(C)C)cc(Br)c1O)Cc1cc(C(C)(C)C)cc(Br)c1O | 8.93 µM | 13.7 | 9.46 µM | 12.9 | 13.7 | 7.33 µM | 6.73 µM | 5.88 µM | 8.15 | – | – | – | – | – | – | – | – | – | – | –
CCN(CC)c1ccc(N=Nc2ccc(-c3nc4ccc[n+](C)c4o3)cc2)cc1 | 35.9 µM | 27.1 | 16.3 µM | 24.5 | 4.31 | 18.5 µM | 21.8 µM | 24.7 µM | 16.6 | – | – | – | – | – | – | – | – | – | – | –
COc1ccccc1NC(=O)CC(=O)N/N=C/c1ccc(N(CCC#N)S(=O)(=O)c2ccccc2)cc1 | – | > 100 | > 100 µM | > 100 | > 100 | > 100 µM | > 100 µM | > 100 µM | > 100 | > 100 | – | – | – | – | – | – | – | – | – | –
O=C(NC12CC3CC(CC(C3)C1)C2)C(=O)c1c[nH]c2ccccc12 | – | 30.2 | 30.5 µM | 28.5 | 28.3 | 31.7 µM | 31 µM | 44.5 µM | 26.7 | 28 | – | – | – | – | – | – | – | – | – | –
COc1cccc(/C=N/C(/N=C/c2cccc(OC)c2O)c2cccc(OC)c2O)c1O | – | 78.8 | > 100 µM | 76.7 | – | 49.2 µM | 62.4 µM | 55.6 µM | 80.1 | 73.9 | – | – | – | – | – | – | – | – | – | –
CC12CCC(Br)C(C)(C)C1CC=C1C(=O)OCC1O2 (stereo unspecified) | 24.7 µM | > 57.9 | > 44.5 µM | 32.3 | – | 11.7 µM | 31.3 µM | 28.5 µM | 23.2 | 24.9 | – | – | – | – | – | – | – | – | – | –
COc1cc2c(cc1OC)/C(=C\c1ccccc1N)C(=O)OC2 | – | 60.1 | – | 31.3 | 29.1 | 3.47 µM | 35.7 µM | 35.2 µM | 32.6 | 47.2 | – | – | – | – | – | – | – | – | – | –
COc1cccc(NC(=O)/C(Cc2nc3ccccc3nc2C)=N/NC(=O)C[n+]2ccccc2)c1 | > 100 µM | > 100 | > 100 µM | > 100 | > 100 | – | > 100 µM | > 100 µM | 39.8 | > 100 | – | – | – | – | – | – | – | – | – | –
Cc1ccc(O)c(NC(=O)c2ccc(CNc3ccnc(C(F)(F)F)c3)cc2)c1 | 37.6 µM | > 100 | 37.4 µM | 24.3 | 22.1 | – | 28.2 µM | 40.1 µM | > 100 | 23.2 | 12.9 µM | 7.45 µM | 4.75 | 2.53 | – | 11.3 | 10.8 µM | 23.5 | 14.3 | 13.7 µM
COC(=O)/C=C/c1cc2c(cc1-c1c(C(=O)O)cc(OC)c(OC)c1OC)OCO2 | – | > 10 | > 10 µM | > 10 | > 10 | > 10 µM | > 10 µM | > 10 µM | > 10 | > 10 | – | – | – | – | – | – | – | – | – | –
COC(=O)CC[C@H](Cc1ccccc1)NC(=O)c1csc([C@@H](C[C@H](C(C)C)N(C)C(=O)[C@@H](NC(=O)[C@H]2CCCCN2C)C(C)C)OC(C)=O)n1 | – | > 25 | > 25 µM | > 25 | > 25 | – | > 25 µM | > 25 µM | > 25 | > 25 | 0.00744 µM | 0.00386 µM | < 0.0025 | 7.53 | – | < 0.0025 | > 25 µM | < 0.0025 | 0.00406 | < 0.0025 µM
O=C1c2ccccc2-c2c1c1ccccc1c(=O)n2CCCn1ccnc1 | 14.1 µM | 4.74 | 13.8 µM | 5.95 | 5.75 | > 100 µM | – | 6.83 µM | 6.83 | – | 1.87 µM | – | 1.94 | 2.45 | 2.14 µM | – | 1.97 µM | 0.793 | 2.74 | 1.4 µM
CC(C)OP(=O)(NC(=S)c1ccccc1)OC(C)C | > 100 µM | > 100 | > 100 µM | > 100 | > 100 | – | > 100 µM | > 100 µM | > 100 | > 100 | – | – | – | – | – | – | – | – | – | –
CN(C)CCCNC(=O)c1cc(NC(=O)c2cc(NC(=O)CCNS(=O)(=O)c3ccc4c(c3)C(=O)c3ccccc3C4=O)cn2C)cn1C | > 100 µM | > 100 | – | > 100 | – | > 100 µM | > 100 µM | > 100 µM | > 100 | > 100 | > 100 µM | > 100 µM | > 100 | – | > 100 µM | > 100 | 74.2 µM | > 100 | > 100 | –
S=P(N1CC1)(N1CC1)N1CC1 | 39.8 µM and 280 µM | – | 46.1 µM and 317 µM and 367 µM | – | – | 33.6 µM and 273 µM and 329 µM | 48.8 µM and 381 µM and 470 µM | > 95.3 µM and 877 µM and 522 µM | – | – | 10.2 µM and 84 µM | 22.5 µM and 208 µM | 27 | – | 15 µM and 125 µM | – | 44.5 µM and 127 µM | – | 24.5 | 21.2 µM and 171 µM
C=CCC1C(=O)CC2(C)CC(=O)C(CC=C)C12C (stereo unspecified) | – | > 100 | > 100 µM | > 100 | > 100 | > 100 µM | > 100 µM | > 100 µM | > 100 | > 100 | – | – | – | – | – | – | – | – | – | –
